Measured values from patent US9416144B2, “Benzoxazine oxazolidinone compound, preparation method and application thereof” (priority 2012, dated 2016).
Converted amounts (≈) assume the structure as drawn. “And” between values parts separate entries of the source, which are not always exact repeats. Equal entries are not always repeated. Where two headings read alike, the source gives them in different places.

Columns and labels:
[1] = tested on: Staphylococcus epidermidis resistant strains (5 strains); experiment: In vitro antibacterial activity, MIC by agar double dilution method; assay type: cell-based; details: clinical isolates
Excerpt: (§1) Experimental method: The agar double dilution method (Antimicrob. Agents and Chemother, 40, 1996, 720-726) was used to determine the minimum inhibitory concentration (MIC) of the series of compounds of the invention and the positive control drug linezolid for the test strains. The multipoint inoculation system (Denley A400) was employed to inoculate the bacteria on the agar plate surface with different concentrations of drugs; inoculation amount on each point was about 10^6 CFU/mL. The plates were incubated at 35° C. for 16 hrs before the results were observed. The lowest drug concentration contained in the Petri dish without bacterial growth was used as the minimum inhibitory concentration (MIC value) of the drug fir that strain.
(§2) Test strains: All the test strains were clinically isolated pathogens which were collected from the Nanjing region, and they were re-identified by routine methods before use. 31 strains of the clinically isolated pathogens were chosen, including 6 strains of Enterococcus, 5 Staphylococcus aureus sensitive strains; 5 Staphylococcus epidermidis sensitive strains; 6 Staphylococcus aureus resistant strains; 5 Staphylococcus epidermidis resistant strains; and 4 Streptococcus pneumoniae resistant strains.
(§3) Compounds to be tested were first added 2 ml of DMSO to help them fully dissolved, then added sterile double distilled water to the desired concentration; to all the Petri dish with added drug liquid were added 20 mL MIT medium which was heat-melted to be liquid-like, to make the final drug concentration in the Petri dish to be 64, 32, 16, 8, 4, 2, 1, 0.5, 0.25, 0.125, 0.0625, and 0.031 μg/mL.
(§4) The positive control group was LZ (linezolid, brand name Zyvox, approved by the FDA in 2000 to be firstly sold in the United States, which is the first and also the only one of oxazolidinone antibacterial drugs allowed to enter clinical application).

Enterococcus (6 strains) = experiment: as above; assay type: cell-based; details: clinical isolates, 35° C. 16 hrs
Excerpt: as §1, §2, §3, §4

[2] = tested on: Staphylococcus aureus resistant strains (6 strains); experiment: as above; assay type: cell-based; details: clinical isolates
Excerpt: as §1, §2, §3, §4

[3] = tested on: Staphylococcus epidermidis sensitive strains (5 strains); experiment: as above; assay type: cell-based; details: clinical isolates
Excerpt: as §1, §2, §3, §4

[4] = tested on: Streptococcus pneumoniae resistant strains (4 strains); experiment: as above; assay type: cell-based; details: clinical isolates
Excerpt: as §1, §2, §3, §4

[5] = tested on: Staphylococcus aureus sensitive strains (5 strains); experiment: as above; assay type: cell-based; details: clinical isolates
Excerpt: as §1, §2, §3, §4

[6] = In vivo pharmacokinetic assays in rats (intragastric and intravenous), plasma Compound 14 by LC-MS/MS; design: species or system SD rats; details: rats
[7] = as above; design: species or system SD rats
Procedure: Two routes of administration (intragastric administration and intravenous injection) were employed.
Intragastric administration: Four healthy SD rats, male, weight 200-250 g, were dosed 15 mg/kg; the delivery volume was 10 ml/kg, prepared with 0.5% CMC-Na. The rats were fasted for 12 hrs before administration, free water-drinking. 0.3 ml of venous blood was taken from the posterior venous plexus of rats to heparinized tubes at 0.25, 0.5, 1.0, 2.0, 3.0, 4.0, 5.0, 7.0, 9.0, 24, and 48 hrs after administration, centrifuged at 3500 rpm for 10 mins to separate the plasma, which was then stored at −20° C. for test.
Intravenous injection: Two healthy SD rats, male, weight 200˜250 g, were dosed 5 mg/kg; the delivery volume was 10 ml/kg, prepared with DMSO, Tween 80 and deionized water. The rats were fasted for 12 hrs before administration, free water-drinking. 0.3 ml of venous blood was taken from the posterior venous plexus of rats to heparinized tubes at 5 min, 15 min, and 0.5, 1.0, 2.0, 3.0, 4.0, 5.0, 7.0, 9.0, 24, and 48 hrs after administration, centrifuged at 3500 rpm for 10 mins to separate the plasma, which was then stored at −20° C. for test.
The concentration of Compound 14 in plasma was determined by liquid chromatography tandem mass spectrometry.
In accordance with the above experimental methods, the inventor has determined the in vivo pharmacokinetic properties of phosphate (ester) disodium salt 37 of Compound 14 in rats.

[8] = male, SD, rat, in vivo, iv, 5 mg/kg, 5 mg/kg Compound 14 intravenous injection, average value
[9] = male, SD, rat, in vivo, po, 15 mg/kg, 15 mg/kg Compound 14 intragastric, average value
[10] = male, SD, rat, in vivo, po, 15 mg/kg, 15 mg/kg Compound 14 intragastric, individual animals No. 15-18
[11] = 5 mg/kg Compound 14 intravenous injection, individual animals No. 19-21, 5 mg/kg
[12] = 15 mg/kg Compound 14 intragastric, individual animals No. 15-18, 15 mg/kg

## O=C1O[C@@H](CO)[C@@H]2COc3cc(-c4ccc(C(O)CO)nc4)ccc3N12 (stereo partly drawn) [Compound 4, (3R,3aS)-7-(6-(1,2-dihydroxylethyl)pyridin-3-yl)-3-(hydroxylmethyl)-3a,4-dihydrobenzo[b]oxazolo[3,4-d][1,4]oxazin-1(3H)-one]
[1]
  MIC: 0.5 µg/mL (≈ 1.4 µM)
Enterococcus (6 strains)
  MIC: 1 to 2 µg/mL (≈ 2.79 to 5.58 µM)
[2]
  MIC: 0.5 to 1 µg/mL (≈ 1.4 to 2.79 µM)
[3]
  MIC: 0.5 µg/mL (≈ 1.4 µM)
[4]
  MIC: 1 to 2 µg/mL (≈ 2.79 to 5.58 µM)
[5]
  MIC: 0.5 to 1 µg/mL (≈ 1.4 to 2.79 µM)
other
  melting point: 150 to 152 °C

## O=C1O[C@@H](CO)[C@@H]2COc3cc(-c4ccc(N5CCC(O)CC5)nc4)ccc3N12 [Compound 11, (3R,3aS)-3-(hydroxylmethyl)-7-(6-(4-hydroxylpiperidin-1-yl)pyridin-3-yl)-3a,4-dihydrobenzo[b]oxazolo[3,4-d][1,4]oxazin-1(3H)-one]
[1]
  MIC: 8 µg/mL (≈ 20.1 µM)
Enterococcus (6 strains)
  MIC: 16 µg/mL (≈ 40.3 µM)
[2]
  MIC: 4 µg/mL (≈ 10.1 µM)
[3]
  MIC: 2 to 4 µg/mL (≈ 5.03 to 10.1 µM)
[4]
  MIC: 2 to 8 µg/mL (≈ 5.03 to 20.1 µM)
[5]
  MIC: 2 to 4 µg/mL (≈ 5.03 to 10.1 µM)
other
  melting point: > 198 °C

## CC(=O)c1ccc(-c2ccc3c(c2)OC[C@H]2[C@H](CO)OC(=O)N32)cn1 [Compound 13, (3R,3aS)-7-(6-acetylpyridin-3-yl)-3-(hydroxylmethyl)-3a,4-dihydrobenzo[b]oxazolo[3,4-d][1,4]oxazin-1(3H)-one]
[1]
  MIC: 4 to 8 µg/mL (≈ 11.8 to 23.5 µM)
Enterococcus (6 strains)
  MIC: 2 µg/mL (≈ 5.88 µM)
[2]
  MIC: 2 to 4 µg/mL (≈ 5.88 to 11.8 µM)
[3]
  MIC: 4 µg/mL (≈ 11.8 µM)
[4]
  MIC: 8 to 16 µg/mL (≈ 23.5 to 47 µM)
[5]
  MIC: 2 to 4 µg/mL (≈ 5.88 to 11.8 µM)
other
  melting point: 199 to 201 °C

## CN1CC(c2ccc(-c3ccc4c(c3)OC[C@H]3[C@H](CO)OC(=O)N43)cn2)OC1=O (stereo partly drawn) [Compound 14, (3R,3aS)-3-(hydroxylmethyl)-7-(6-(3-methyl-2-oxazolidin-5-yl)pyridin-3-yl)-3a,4-dihydrobenzo[b]oxazolo[3,4-d][1,4]oxazin-1(3H)-one]
[6]; [8]
  AUC(0-inf): 1560 ng·h/mL
  half-life: 151 ± 55.2 min
[6]; male, SD, rat, in vivo, iv, 5 mg/kg, 5 mg/kg Compound 14 intravenous injection, average value, read-out: AUC0-t
  AUC0-t: 1540 ± 54 ng·h/mL
[6]; male, SD, rat, in vivo, iv, 5 mg/kg, 5 mg/kg Compound 14 intravenous injection, average value, read-out: MRT
  MRT: 44.4 min
[6]; male, SD, rat, in vivo, iv, 5 mg/kg, 5 mg/kg Compound 14 intravenous injection, individual animals No. 19-21
  AUC(0-inf): 1600 ng·h/mL
[6]; male, SD, rat, in vivo, iv, 5 mg/kg, 5 mg/kg Compound 14 intravenous injection, individual animals No. 19-21, read-out: AUC0-t
  AUC0-t: 1600 ng·h/mL
[6]; male, SD, rat, in vivo, iv, 5 mg/kg, 5 mg/kg Compound 14 intravenous injection, individual animals No. 19-21, read-out: MRT
  MRT: 36.6 min
[6]; male, SD, rat, in vivo, iv, 5 mg/kg, 5 mg/kg Compound 14 intravenous injection, individual animals No. 19-21, read-out: Vss
  Vd: 1.9 L/kg
[6]; [9]
  AUC(0-inf): 2170 ng·h/mL
  Cmax: 809 ± 267 ng/mL
  Tmax: 1 ± 0.71 h
[6]; male, SD, rat, in vivo, po, 15 mg/kg, 15 mg/kg Compound 14 intragastric, average value, read-out: AUC0-t
  AUC0-t: 2070 ± 319 ng·h/mL
[6]; male, SD, rat, in vivo, po, 15 mg/kg, 15 mg/kg Compound 14 intragastric, average value, read-out: MRT
  MRT: 158 min
[6]; [10]
  half-life: 137 min
[6]; male, SD, rat, in vivo, po, 15 mg/kg, 15 mg/kg Compound 14 intragastric, individual animals No. 15-18, read-out: AUC0-t
  AUC0-t: 1620 ng·h/mL
[6]; male, SD, rat, in vivo, po, 15 mg/kg, 15 mg/kg Compound 14 intragastric, individual animals No. 15-18, read-out: MRT
  MRT: 202 min
[6]; [11]
  AUC0-t: 1490 ng·h/mL and 1526 ng·h/mL
  AUC0-∞: 1510 ng·h/mL and 1555 ng·h/mL
  CLz: 3.12 L/h/kg and 3.31 L/h/kg and 3.22 L/h/kg
  MRT: 47.4 min and 49.2 min
  Vss: 2.62 L/kg and 2.64 L/kg
  t1/2: 1.62 h and 2.46 h and 3.45 h
[6]; 15 mg/kg Compound 14 intragastric vs 5 mg/kg intravenous, dose corrected
  F (absolute bioavailability): 44%
[7]; [12]
  AUC0-t: 2174 ng·h/mL and 2095 ng·h/mL and 2374 ng·h/mL
  AUC0-∞: 2290 ng·h/mL and 2165 ng·h/mL and 2440 ng·h/mL
  Cmax: 474 ng/mL and 766 ng/mL and 878 ng/mL and 1117 ng/mL
  MRT: 2.93 h and 2.03 h and 2.23 h
  Tmax: 2.00 h and 0.50 h
  t1/2: 1.64 h and 2.34 h and 1.45 h
[7]; male, SD, rat, in vivo, 5 mg/kg Compound 14 intravenous injection, average value, read-out: CLz (plasma clearance) (converted)
  clearance: 53.7 mL/min/kg
[7]; male, SD, rat, in vivo, 15 mg/kg, 15 mg/kg Compound 14 intragastric vs 5 mg/kg intravenous, dose corrected, read-out: F (absolute bioavailability)
  bioavailability: 44.8%
[7]; male, SD, rat, in vivo, iv, 5 mg/kg, 5 mg/kg Compound 14 intravenous injection, average value, read-out: Vss (distribution volume)
  Vd: 2.39 ± 0.42 L/kg
[7]; [9]
  half-life: 116 ± 27 min
[7]; [10]
  AUC(0-inf): 1770 ng·h/mL
[1]
  MIC: 0.25 to 1 µg/mL (≈ 0.629 to 2.52 µM)
Enterococcus (6 strains)
  MIC: 1 to 2 µg/mL (≈ 2.52 to 5.03 µM)
[2]
  MIC: 0.5 to 1 µg/mL (≈ 1.26 to 2.52 µM)
[3]
  MIC: 0.25 to 0.5 µg/mL (≈ 0.629 to 1.26 µM)
[4]
  MIC: 1 µg/mL (≈ 2.52 µM)
[5]
  MIC: 0.5 to 1 µg/mL (≈ 1.26 to 2.52 µM)

## Cc1cc(C#N)ncc1-c1ccc2c(c1)OC[C@H]1[C@H](CO)OC(=O)N21 [Compound 21, 5-((3R,3aS)-3-(hydroxylmethyl)-1-oxo-1,3,3a,4-tetrahydrobenzo[b]oxazolo[3,4-d][1,4]oxazin-7-yl)-4-methylpicolinonitrile]
[1]
  MIC: 0.25 to 1 µg/mL (≈ 0.741 to 2.96 µM)
Enterococcus (6 strains)
  MIC: 4 to 8 µg/mL (≈ 11.9 to 23.7 µM)
[2]
  MIC: 0.5 to 1 µg/mL (≈ 1.48 to 2.96 µM)
[3]
  MIC: 0.25 to 0.5 µg/mL (≈ 0.741 to 1.48 µM)
[4]
  MIC: 1 to 2 µg/mL (≈ 2.96 to 5.93 µM)
[5]
  MIC: 0.25 to 0.5 µg/mL (≈ 0.741 to 1.48 µM)
other
  melting point: 238 to 240 °C

## Cc1cc(N2CCOC2=O)ncc1-c1ccc2c(c1)OC[C@H]1[C@H](CO)OC(=O)N21 [Compound 22, (3R,3aS)-3-(hydroxylmethyl)-7-(4-methyl-6-(2-oxooxazolidin-3-yl)pyridin-3-yl)-3a,4-dihydrobenzo[b]oxazolo[3,4-d][1,4]oxazin-1(3H)-one]
[1]
  MIC: 1 µg/mL (≈ 2.52 µM)
Enterococcus (6 strains)
  MIC: 4 to 16 µg/mL (≈ 10.1 to 40.3 µM)
[2]
  MIC: 0.5 to 1 µg/mL (≈ 1.26 to 2.52 µM)
[3]
  MIC: 0.5 to 1 µg/mL (≈ 1.26 to 2.52 µM)
[4]
  MIC: 2 µg/mL (≈ 5.03 µM)
[5]
  MIC: 0.5 to 1 µg/mL (≈ 1.26 to 2.52 µM)
other
  melting point: 245 to 246 °C
